Assay results as given in patent US8673908B2, “Kynurenine production inhibitor” (Kyowa Hakko Kirin Co., Ltd., priority 2008, dated 2014).

test system: kynurenine production in IFN-γ-treated KATO-III cells; test: Inhibitory activity on kynurenine production (Test Example 1); type: cell-based; settings: Homo sapiens, IFN-γ treatment, culture for 96 hours, read-out: IC50 value, inhibition of kynurenine production
Procedure, shortened: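 Read-out is absorbance at 480 nm of medium treated with trichloroacetic acid, then p-dimethylaminobenzaldehyde, to quantify kynurenine. DMSO-only wells with and without IFN-γ serve as references. Cells were KATO-III, 2,000 per well, 96 h at 37 °C/5% CO2 with compound (DMSO ≤0.1%) and IFN-γ at 31.25 ng/mL in the added suspension.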

| Compound | IC50 |
| --- | --- |
| O=S(=O)(Nc1nc2ccccc2nc1OC(C1CCSCC1)C(F)(F)F)c1ccccc1Cl (stereo not drawn) [Compound 267, 2-chloro-N-{3-[2,2,2-trifluoro-1-(tetrahydro-2H-thiopyran-4-yl)ethoxy]quinoxalin-2-yl}benzenesulfonamide] | < 1 µM |
| CCOC(CCNS(=O)(=O)Nc1nc2ccccc2nc1OC(c1cccnc1)C(F)(F)F)OCC (stereo not drawn) [Compound 272, N-{3-[2,2,2-trifluoro-1-(pyridin-3-yl)ethoxy]quinoxalin-2-yl}-N′-(3,3-diethoxypropyl)-sulfuric diamide] | < 1 µM |
| O=CCCNS(=O)(=O)Nc1nc2ccccc2nc1OC(c1cccnc1)C(F)(F)F (stereo not drawn) [Compound 273, N-{3-[2,2,2-trifluoro-1-(pyridin-3-yl)ethoxy]quinoxalin-2-yl}-N′-(3-oxopropyl)-sulfuric diamide] | 1 to 10 µM |
| C#CCNS(=O)(=O)Nc1nc2ccccc2nc1OC(c1cccnc1)C(F)(F)F (stereo not drawn) [Compound 274, N-{3-[2,2,2-trifluoro-1-(pyridin-3-yl)ethoxy]quinoxalin-2-yl}-N′-(2-propynyl)-sulfuric diamide] | < 1 µM |
| CCCS(=O)(=O)Nc1nc2ccccc2nc1OC(c1cncs1)C(F)(F)F (stereo not drawn) [Compound 276, N-{3-[2,2,2-trifluoro-1-(thiazol-5-yl)ethoxy]quinoxalin-2-yl}propane-1-sulfonamide] | < 1 µM |
| CCCS(=O)(=O)Nc1nc2ccccc2nc1OC(c1cncn1C)C(F)(F)F (stereo not drawn) [Compound 277, N-{3-[2,2,2-trifluoro-1-(1-methyl-1H-imidazol-5-yl)ethoxy]-quinoxalin-2-yl}propane-1-sulfonamide] | 1 to 10 µM |
| CCCS(=O)(=O)Nc1nc2ccccc2nc1OC(c1ccc(Cl)nc1)C(F)(F)F (stereo not drawn) [Compound 278, N-{3-[1-(6-chloropyridin-3-yl)-2,2,2-trifluoroethoxy]-quinoxalin-2-yl}propane-1-sulfonamide] | < 1 µM |
| CCCNS(=O)(=O)Nc1nc2ccccc2nc1OC(c1ccc(C)nc1)C(F)(F)F (stereo not drawn) [Compound 280, N-{3-[2,2,2-trifluoro-1-(6-methylpyridin-3-yl)ethoxy]-quinoxalin-2-yl}-N′-propyl-sulfuric diamide] | < 1 µM |
| CCCNS(=O)(=O)Nc1nc2ccccc2nc1OC(c1cncs1)C(F)(F)F (stereo not drawn) [Compound 281, N-{3-[2,2,2-trifluoro-1-(thiazol-5-yl)ethoxy]quinoxalin-2-yl}-N′-propyl-sulfuric diamide] | < 1 µM |
| CCCNS(=O)(=O)Nc1nc2ccccc2nc1OC(c1cncn1C)C(F)(F)F (stereo not drawn) [Compound 282, N-{3-[2,2,2-trifluoro-1-(1-methyl-1H-imidazol-5-yl)ethoxy]-quinoxalin-2-yl}-N′-propyl-sulfuric diamide] | < 1 µM |
| CCCNS(=O)(=O)Nc1nc2ccccc2nc1OC(c1ccc(Cl)nc1)C(F)(F)F (stereo not drawn) [Compound 283, N-{3-[1-(6-chloropyridin-3-yl)-2,2,2-trifluoroethoxy]-quinoxalin-2-yl}-N′-propyl-sulfuric diamide] | < 1 µM |
| CCCNS(=O)(=O)Nc1nc2ccccc2nc1OC(c1ccc(C)[n+]([O-])c1)C(F)(F)F (stereo not drawn) [Compound 284, 2-methyl-5-{2,2,2-trifluoro-1-[3-(N-propylsulfamoylamino)-quinoxalin-2-yloxy]ethyl}pyridine 1-oxide] | < 1 µM |
| Cc1ccc(C(Oc2nc3ccccc3nc2NS(=O)(=O)NC2CC2)C(F)(F)F)cn1 (stereo not drawn) [Compound 285, N-{3-[2,2,2-trifluoro-1-(6-methylpyridin-3-yl)ethoxy]-quinoxalin-2-yl}-N′-cyclopropyl-sulfuric diamide] | < 1 µM |
| O=S(=O)(Nc1nc2ccccc2nc1OC(c1cncs1)C(F)(F)F)NC1CC1 (stereo not drawn) [Compound 286, N-{3-[2,2,2-trifluoro-1-(thiazol-5-yl)ethoxy]quinoxalin-2-yl}-N′-cyclopropyl-sulfuric diamide] | < 1 µM |
| Cn1cncc1C(Oc1nc2ccccc2nc1NS(=O)(=O)NC1CC1)C(F)(F)F (stereo not drawn) [Compound 287, N-{3-[2,2,2-trifluoro-1-(1-methyl-1H-imidazol-5-yl)ethoxy]-quinoxalin-2-yl}-N′-cyclopropyl-sulfuric diamide] | 1 to 10 µM |
| O=S(=O)(Nc1nc2ccccc2nc1OC(c1ccc(Cl)nc1)C(F)(F)F)NC1CC1 (stereo not drawn) [Compound 288, N-{3-[1-(6-chloropyridin-3-yl)-2,2,2-trifluoroethoxy]-quinoxalin-2-yl}-N′-cyclopropyl-sulfuric diamide] | < 1 µM |
| Cc1ccc(C(Oc2nc3ccccc3nc2NS(=O)(=O)NC2CC2)C(F)(F)F)c[n+]1[O-] (stereo not drawn) [Compound 289, 5-{1-[3-(N-cyclopropylsulfamoylamino)quinoxalin-2-yloxy]-2,2,2-trifluoroethyl}-2-methylpyridine 1-oxide] | 1 to 10 µM |
| CCCS(=O)(=O)Nc1nc2ccccc2nc1OC(c1cccc(C#N)c1)C(F)(F)F (stereo not drawn) [Compound 290, N-{3-[1-(3-cyanophenyl)-2,2,2-trifluoroethoxy]quinoxalin-2-yl}propane-1-sulfonamide] | < 1 µM |

| Compound | IC50 |
| --- | --- |
| CCCNS(=O)(=O)Nc1nc2ccccc2nc1OC(c1cccc(C#N)c1)C(F)(F)F (stereo not drawn) [Compound 291, N-{3-[1-(3-cyanophenyl)-2,2,2-trifluoroethoxy]quinoxalin-2-yl}-N′-propyl-sulfuric diamide] | < 1 µM |
| CCCNS(=O)(=O)Nc1nc2ccccc2nc1OC(c1ccc(C#N)cc1)C(F)(F)F (stereo not drawn) [Compound 292, N-{3-[1-(4-cyanophenyl)-2,2,2-trifluoroethoxy]quinoxalin-2-yl}-N′-propyl-sulfuric diamide] | < 1 µM |
| N#Cc1cccc(C(Oc2nc3ccccc3nc2NS(=O)(=O)NC2CC2)C(F)(F)F)c1 (stereo not drawn) [Compound 293, N-{3-[1-(3-cyanophenyl)-2,2,2-trifluoroethoxy]quinoxalin-2-yl}-N′-cyclopropyl-sulfuric diamide] | < 1 µM |
| O=S(=O)(Nc1nc2ccccc2nc1OC(C1CCOCC1)C(F)(F)F)NC1CC1 (stereo not drawn) [Compound 299, N-{3-[2,2,2-trifluoro-1-(tetrahydro-2H-pyran-4-yl)ethoxy]-quinoxalin-2-yl}-N′-cyclopropyl-sulfuric diamide] | < 1 µM |
| COCCS(=O)(=O)Nc1nc2ccccc2nc1OC(c1cccnc1)C(F)(F)F (stereo not drawn) [Compound 300, 2-methoxy-N-{3-[2,2,2-trifluoro-1-(pyridin-3-yl)ethoxy]-quinoxalin-2-yl}ethanesulfonamide] | < 1 µM |
| COCCCS(=O)(=O)Nc1nc2ccccc2nc1OC(c1cccnc1)C(F)(F)F (stereo not drawn) [Compound 301, 3-methoxy-N-{3-[2,2,2-trifluoro-1-(pyridin-3-yl)ethoxy]-quinoxalin-2-yl}propane-1-sulfonamide] | < 1 µM |
| CCCS(=O)(=O)Nc1nc2ccccc2nc1OC(c1ccc(Cl)cc1)C(F)(F)F (stereo not drawn) [Compound 302, N-{3-[1-(4-chlorophenyl)-2,2,2-trifluoroethoxy]quinoxalin-2-yl}propane-1-sulfonamide] | < 1 µM |
| O=S(=O)(CC1CC1)Nc1nc2ccccc2nc1OC(c1cccnc1)C(F)(F)F (stereo not drawn) [Compound 303, 1-cyclopropyl-N-{3-[2,2,2-trifluoro-1-(pyridin-3-yl)-ethoxy]quinoxalin-2-yl}methanesulfonamide] | < 1 µM |
| C=CCS(=O)(=O)Nc1nc2ccccc2nc1OC(c1cccnc1)C(F)(F)F (stereo not drawn) [Compound 304, N-{3-[2,2,2-trifluoro-1-(pyridin-3-yl)ethoxy]quinoxalin-2-yl}-2-propene-1-sulfonamide] | < 1 µM |
| Cc1ccc(C(Oc2nc3ccccc3nc2NS(=O)(=O)CC2CC2)C(F)(F)F)cn1 (stereo not drawn) [Compound 305, 1-cyclopropyl-N-{3-[2,2,2-trifluoro-1-(6-methylpyridin-3-yl)ethoxy]quinoxalin-2-yl}methanesulfonamide] | < 1 µM |
| Cc1ncc(C(Oc2nc3ccccc3nc2NS(=O)(=O)CC2CC2)C(F)(F)F)s1 (stereo not drawn) [Compound 306, 1-cyclopropyl-N-{3-[2,2,2-trifluoro-1-(2-methylthiazol-5-yl)ethoxy]quinoxalin-2-yl}methanesulfonamide] | < 1 µM |
| O=S(=O)(CC1CC1)Nc1nc2ccccc2nc1O[C@H](c1cccnc1)C(F)(F)F [Compound 307, (R)-1-cyclopropyl-N-{3-[2,2,2-trifluoro-1-(pyridin-3-yl)-ethoxy]quinoxalin-2-yl}methanesulfonamide] | < 1 µM |
| O=S(=O)(CC1CC1)Nc1nc2ccccc2nc1OC(c1ccc(Cl)nc1)C(F)(F)F (stereo not drawn) [Compound 308, 1-cyclopropyl-N-{3-[1-(6-chloropyridin-3-yl)-2,2,2-trifluoroethoxy]quinoxalin-2-yl}methanesulfonamide] | < 1 µM |
| N#Cc1cccc(C(Oc2nc3ccccc3nc2NS(=O)(=O)CC2CC2)C(F)(F)F)c1 (stereo not drawn) [Compound 309, 1-cyclopropyl-N-{3-[1-(3-cyanophenyl)-2,2,2-trifluoroethoxy]quinoxalin-2-yl}methanesulfonamide] | < 1 µM |
| CCCS(=O)(=O)Nc1nc2ccccc2nc1O[C@H](c1cccnc1)C(F)(F)F [Compound 312, (R)—N-{3-[2,2,2-trifluoro-1-(pyridin-3-yl)ethoxy]-quinoxalin-2-yl}propane-1-sulfonamide] | < 1 µM |
| CCCS(=O)(=O)Nc1nc2ccccc2nc1O[C@@H](c1cccnc1)C(F)(F)F [Compound 313, (S)—N-{3-[2,2,2-trifluoro-1-(pyridin-3-yl)ethoxy]-quinoxalin-2-yl}propane-1-sulfonamide] | 1 to 10 µM |
| CCCNS(=O)(=O)Nc1nc2ccccc2nc1O[C@H](c1cccnc1)C(F)(F)F [Compound 314, (R)—N-propyl-N′-{3-[2,2,2-trifluoro-1-(pyridin-3-yl)-ethoxy]quinoxalin-2-yl}sulfuric diamide] | < 1 µM |
| CCCS(=O)(=O)Nc1nc2ccccc2nc1OC(c1cnc(C)s1)C(F)(F)F (stereo not drawn) [Compound 315, N-{3-[2,2,2-trifluoro-1-(2-methylthiazol-5-yl)ethoxy]-quinoxalin-2-yl}propane-1-sulfonamide] | < 1 µM |
